In general, IC50 refers to the concentration at which inhibition is half-maximal. Higher therefore signals a need for much substance.

In assay [1] the test system is human adenocarcinoma cell line CaCo-2. The assay is described as follows: Cell Based Screen for Inhibitors of Raf Kinase, CaCo-2 cells. Particulars: CaCo-2, four days, SRB. The protocol: (§1) • Cell Lines: Human adenocarcinoma cell line LoVo which is known to be growth inhibited by low nM concentrations of a reference standard inhibitor of Ras and human adenocarcinoma cell line CaCo-2, which is known to be growth resistant to the same reference compound. • Cell Media: RPMI 1640 with 10% Fetal Bovine Serum supplemented with L-glutamine and Pennicilin/Streptomycin. • Compounds: Supplied usually as a 10 mM stock in 100% DMSO. • Normal Saline: 150 mM NaCl • Trichloroacetic Acid (TCA): 50% (w/v) in water • Sulforhodamine B (SRB): 0.4% (w/v) in 1% Acetic Acid • Tris Base: 10 mM in water
(§2) Cells are plated at 2000 cells per well for cell line LoVo and 1500 cells for cell line CaCo-2 in 96 well plates. Cells are plated in media (200 µl) and allowed to adhere overnight at 37° C. At 24 hours post plating, compounds are added directly at a volume of 0.5 µl. For the qualitative screen (compounds screened at 25 µM) compound is added directly to cells. For the quantitative screen, compound is first diluted in DMSO to generate concentrations of compound or reference standard of: 1, 5, 10 and 25 µM. It is advisable to make the dilutions in an identical 96 well plate so that compounds may be added using a multichannel micropipettor set at 0.5 µl. The cells are then incubated for four days after which the media is removed using a 12 well manifold by first tipping the plate forward at a 45 degree angle and then inserting the manifold in an upright orientation to prevent the tips of the manifold from disturbing cells at the bottom of the plate. 200 µl of normal saline is then added to each well using an 8 well multichannel pipettor, followed by the careful addition of 50 µl of 50% TCA. The plates are then incubated for 2 hours at 4 ° C, after which the supernatant is removed using the same technique as above and the plated washed twice with 200 µl water. The plates are then air dried and 50 µl of SRB stock solution is carefully added so that the entire bottom of each well is covered. This again may be used using an 8 well multichannel pipettor. The SRB is incubated with fixed cells for 15 minutes at room temperature after which the SRB is removed with the manifold as described above and the plates washed twice with 350 µl of 1% acetic acid per well each time.The plates are then air dried after which the bound SRB is released from protein by the addition of 200 µl of Tris base. Resolubilizing the SRB is aided by placing the plates on a rotator for 15-30 minutes. The absorbance of each well is determined at 550 or 562 nm using a microtiter plate reader.
(§3) Each compound or dilution thereof is performed in triplicate. Outliers are identified by visual inspection of the data. Each plate should have a "0" control (vehicle only).
(§4) Quantitative Assay: A standard curve is constructed by plotting the concentration of compound against the average absorbance calculated at that concentration. A curve is plotted and the concentration at which the curve passes through the 50% the absorbance mark seen in the "0" control well is the IC50 calculated for that compound. […]

In assay [2] the test system is Human adenocarcinoma cell line LoVo. The assay is described as follows: Cell Based Screen for Inhibitors of Raf Kinase, LoVo cells. Particulars: four days, SRB. The protocol: as §1, §2, §3, §4

SMILES strings stand for the structures. Where “and” joins values, the source holds several entries; their conditions need not be identical. Identical values can stand only once.

Turning to `N#Cc1cnc2cc(-c3csc(CN4CCOCC4)c3)ccc2c1Nc1ccc(Oc2ccccc2)cc1` [Example 7, 7-[5-(4-Morpholinylmethyl)-3-thienyl]-4-(4-phenoxyanilino)-3-quinolinecarbonitrile], the half-inhibitory concentration (IC50) was above 10000 nM in assay [1] (Homo sapiens, Caco-2, 96 h) and 3700 nM in assay [2] (Homo sapiens, 96 h).
On to `N#Cc1cnc2cc(-c3csc(CN4CCOCC4)c3)ccc2c1Nc1ccc(Cc2ccccc2)cc1` [Example 8, 4-(4-Benzylanilino)-7-[5-(4-morpholinylmethyl)-3-thienyl]-3-quinolinecarbonitrile], for which the IC50 in assay [1] (Homo sapiens, Caco-2, 96 h) was above 10000 nM; in assay [2] (Homo sapiens, 96 h), above 10000 nM.
Regarding `Cn1ccnc1Sc1ccc(Nc2c(C#N)cnc3cc(-c4ccc(CN5CCOCC5)c(CN5CCOCC5)c4)ccc23)cc1Cl` [Example 35, 7-[3,4-Bis(4-morpholinylmethyl)phenyl]-4-[3-chloro-4-[(1-methyl-1H-imidazol-2-yl)sulfanyl]anilino}-3-quinolinecarbonitrile], the IC50 in assay [1] (Homo sapiens, Caco-2, 96 h) is above 10000 nM; in assay [2] (Homo sapiens, 96 h) it was below 5 nM; in assay [2] it was 6 nM.
`N#Cc1cnc2cc(-c3ccc(CN4CCOCC4)cn3)ccc2c1Nc1ccc(Oc2ccccc2)cc1` [Example 56, 7-[5-(4-Morpholinylmethyl)-2-pyridinyl]-4-(4-phenoxyanilino)-3-quinolinecarbonitrile]: the IC50 in assay [1] was 600 nM; in assay [1] (Homo sapiens, Caco-2, 96 h), 1000 nM; in assay [2] (Homo sapiens, 96 h), 290 nM; in assay [2], 440 nM and 310 nM.
Turning to `Cn1ccnc1Sc1ccc(Nc2c(C#N)cnc3cc(-c4ccc(CN5CCOCC5)cc4)ccc23)cc1Cl` [Example 63, 4-{3-Chloro-4-[(1-methyl-1H-imidazol-2-yl)sulfanyl]anilino}-7-[4-(4-morpholinylmethyl)phenyl]-3-quinolinecarbonitrile], the IC50 came to 2200 nM in assay [1] (Homo sapiens, Caco-2, 96 h) and 3800 nM in assay [2] (Homo sapiens, 96 h).
Turning to `CC(C)N1CCN(Cc2ccc(-c3ccc4c(Nc5ccc(Sc6nccn6C)c(Cl)c5)c(C#N)cnc4c3)cc2)CC1` [Example 98, 4-({3-Chloro-4-[(1-methyl-1H-imidazol-2-yl)sulfanyl]phenyl}amino)-7-{4-[(4-isopropyl-1-piperazinyl)methyl]phenyl}-3-quinolinecarbonitrile], the IC50 worked out at 640 nM in assay [1] (Homo sapiens, Caco-2, 96 h) and 7.1 nM in assay [2] (Homo sapiens, 96 h).
Turning to `CN(CCO)Cc1ccc(-c2ccc3c(Nc4ccc(Sc5nccn5C)c(Cl)c4)c(C#N)cnc3c2)nc1` [Example 106, 4-({3-Chloro-4-[(1-methyl-1H-imidazol-2-yl)sulfanyl]phenyl}amino)-7-(5-{[(2-hydroxyethyl)(methyl)amino]methyl}-2-pyridinyl)-3-quinolinecarbonitrile], the IC50 was above 1000 nM in assay [1] (Homo sapiens, Caco-2, 96 h) and 6.4 nM in assay [2] (Homo sapiens, 96 h).
Consider `COC(=O)C1CCN(Cc2ccc(-c3ccc4c(Nc5ccc(Sc6nccn6C)c(Cl)c5)c(C#N)cnc4c3)nc2)CC1` [Example 107, Methyl 1-{[6-(4-{3-chloro-4-[(1-methyl-1H-imidazol-2-yl)sulfanyl]anilino}-3-cyano-7-quinolinyl)-3-pyridinyl]methyl}-4-piperidinecarboxylate], for which the IC50 was above 1000 nM in assay [1] (Homo sapiens, Caco-2, 96 h) and 25 nM in assay [2] (Homo sapiens, 96 h).
On the same counts, the results for `CCN1CCN(c2ccc(-c3ccc4c(Nc5ccc(Sc6nccn6C)c(Cl)c5)c(C#N)cnc4c3)nc2)CC1` [Example 108, 4-({3-Chloro-4-[(1-methyl-1H-imidazol-2-yl)sulfanyl]phenyl}amino)-7-[5-(4-ethyl-1-piperazinyl)-2-pyridinyl]-3-quinolinecarbonitrile] are 390 nM and 2.6 nM.
As for `Cn1ccnc1Sc1ccc(Nc2c(C#N)cnc3cc(-c4ccc(CN5CCOCC5)nc4)ccc23)cc1Cl` [Example 109, 4-({3-Chloro-4-[(1-methyl-1H-imidazol-2-yl)sulfanyl]phenyl}amino)-7-[6-(4-morpholinylmethyl)-3-pyridinyl]-3-quinolinecarbonitrile], the IC50 in assay [1] (Homo sapiens, Caco-2, 96 h) came out at 980 nM; in assay [2] (Homo sapiens, 96 h), 6.8 nM.
On the same counts, the results for `Cn1ccnc1Sc1ccc(Nc2c(C#N)cnc3cc(-c4ccc(N5CCSCC5)nc4)ccc23)cc1Cl` [Example 110, 4-({3-Chloro-4-[(1-methyl-1H-imidazol-2-yl)sulfanyl]phenyl}amino)-7-[6-(4-thiomorpholinyl)-3-pyridinyl]-3-quinolinecarbonitrile] are above 1000 nM and 10 nM.
Consider `COc1cc2c(Nc3ccc(Sc4nccn4C)c(Cl)c3)c(C#N)cnc2cc1-c1ccc(CN2CCOCC2)cc1` [Example 123, 4-{3-Chloro-4-[(1-methyl-1H-imidazol-2-yl)sulfanyl]anilino}-6-methoxy-7-[4-(4-morpholinylmethyl)phenyl]-3-quinolinecarbonitrile], for which the IC50 in assay [1] (Homo sapiens, Caco-2, 96 h) came out at 1500 nM; in assay [2] (Homo sapiens, 96 h) it was 40 nM.
Turning to `COc1cc2c(Nc3ccc(Sc4nccn4C)c(Cl)c3)c(C#N)cnc2cc1-c1csc(CN2CCOCC2)c1` [Example 125, 4-{3-Chloro-4-[(1-methyl-1H-imidazol-2-yl)sulfanyl]anilino}-6-methoxy-7-[5-(4-morpholinylmethyl)-3-thienyl]-3-quinolinecarbonitrile], the 50% inhibitory concentration (IC50) was 2800 nM in assay [1]; 1900 nM in assay [1] (Homo sapiens, Caco-2, 96 h); 20 nM in assay [2] (Homo sapiens, 96 h); 15 nM in assay [2].
Take `COc1cc2c(Nc3ccc(Sc4nccn4C)c(Cl)c3)c(C#N)cnc2cc1-c1csc(CN2CCN(C)CC2)c1` [Example 126, 4-{3-Chloro-4-[(1-methyl-1H-imidazol-2-yl)sulfanyl]anilino}-6-methoxy-7-{5-[(4-methyl-1-piperazinyl)methyl]-3-thienyl}-3-quinolinecarbonitrile]: the IC50 was above 1000 nM in assay [1] (Homo sapiens, Caco-2, 96 h) and 75 nM in assay [2] (Homo sapiens, 96 h).
For the compound `Cn1ccnc1Sc1ccc(Nc2c(C#N)cnc3cc(-c4ccc(C(=O)N5CCOCC5)cc4)ccc23)cc1Cl` [Example 129, 4-({3-Chloro-4-[(1-methyl-1H-imidazol-2-yl)sulfanyl]phenyl}amino)-7-[4-(4-morpholinylcarbonyl)phenyl]-3-quinolinecarbonitrile], the IC50 in assay [1] (Homo sapiens, Caco-2, 96 h) was above 1000 nM; in assay [2] (Homo sapiens, 96 h), 42 nM.
As to `N#Cc1cnc2cc(-c3ccc(CN4CCOCC4)c(CN4CCOCC4)c3)ccc2c1Nc1ccc(OCc2ccccc2)c(Cl)c1` [Example 132, 4-[4-(benzyloxy)-3-chloroanilino]-7-[3,4-bis(4-morpholinylmethyl)phenyl]-3-quinolinecarbonitrile], the IC50 in assay [1] (Homo sapiens, Caco-2, 96 h) is 7000 nM; in assay [2] (Homo sapiens, 96 h), 430 nM.
For the compound `Cn1ccnc1Sc1ccc(Nc2c(C#N)cnc3cc(-c4cc(CN5CCOCC5)c(CN5CCOCC5)s4)ccc23)cc1Cl` [Example 169, 7-[4,5-bis(4-morpholinylmethyl)-2-thienyl]-4-{3-chloro-4-[(1-methyl-1H-imidazol-2-yl)sulfanyl]anilino}-3-quinolinecarbonitrile], the IC50 in assay [2] (Homo sapiens, 96 h) stood at 40 nM; in assay [2], 47 nM.
As to `CCN1CCN(Cc2ccc(-c3ccc4c(Nc5ccc(Sc6nccn6C)c(Cl)c5)c(C#N)cnc4c3)nc2)CC1` [Example 171, 4-{3-chloro-4-[(1-methyl-1H-imidazol-2-yl)sulfanyl]anilino}-7-{5-[(4-ethyl-1-piperazinyl)methyl]-2-pyridinyl}-3-quinolinecarbonitrile], the IC50 in assay [2] (Homo sapiens, 96 h) is 8 nM; in assay [2] it was 5 nM and < 5 nM.
In assay [2] (Homo sapiens, 96 h), `Cn1ccnc1Sc1ccc(Nc2c(C#N)cnc3cc(-c4ccc(N5CCOCC5)nc4)ccc23)cc1Cl` [Example 190, 4-{3-chloro-4-[(1-methyl-1H-imidazol-2-yl)sufanyl]anilino}-7-[6-(4-morpholinyl)-3-pyridinyl]-3-quinolinecarbonitrile] displayed an IC50 of 2 nM.

The values above are taken from EP1268431B1 (Wyeth, priority 2000, dated 2001).
